Source: patent US20230416330A1, “Optimized GIP Peptide Analogues” (Antag Therapeutics ApS, priority 2019, published 2023)
Where two headings read alike, the source gives them in different places. Residues, ends and D or L forms follow the SMILES beside them. *: point of attachment. C16 diacid = O=C(O)CCCCCCCCCCCCCCC(=O)*

Key:
[1] = Solubility by visual inspection of peptide solutions; assay type: physicochemical; details: 1 mg/ml, TFA, Phosphate (7.4)
In short: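 Solubility scored by eye: clear, colorless appearance after gentle mixing. Samples prepared at 1, 5, 7.5 or 15 mg/ml in either pH 7.4 water (NaOH-adjusted) or 50 mM sodium phosphate buffer, pH 7.4.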

[2] = Physical stability: fibril formation in Thioflavin T (ThT) assay with agitation; assay type: physicochemical; details: 1 mg/ml, TFA, Phosphate (7.4); 25° C., agitation
In short: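 Read-out is continuous ThT fluorescence at 486 nm, with lag time taken where signal reaches 10% between pre- and post-transition baselines. Filtered samples (1, 5, 7.5 or 15 mg/ml; pH 7.4 phosphate buffer or NaOH-adjusted water) were stressed at 25° C. by orbital rotation at 300 rpm with one silica bead per well.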

human GIP receptor = target: T1, human GIP receptor (Homo sapiens, UniProt P48546); assay: cAMP assay Alternative 2 (Gaddum assay), antagonist potency pKb; assay type: cell-based
T1 construct: host or cells: HEK-293 cells, transient transfection (Lipofectamine 2000), cDNA in pCMV-Script vector
T1 sequence (P48546 22-466): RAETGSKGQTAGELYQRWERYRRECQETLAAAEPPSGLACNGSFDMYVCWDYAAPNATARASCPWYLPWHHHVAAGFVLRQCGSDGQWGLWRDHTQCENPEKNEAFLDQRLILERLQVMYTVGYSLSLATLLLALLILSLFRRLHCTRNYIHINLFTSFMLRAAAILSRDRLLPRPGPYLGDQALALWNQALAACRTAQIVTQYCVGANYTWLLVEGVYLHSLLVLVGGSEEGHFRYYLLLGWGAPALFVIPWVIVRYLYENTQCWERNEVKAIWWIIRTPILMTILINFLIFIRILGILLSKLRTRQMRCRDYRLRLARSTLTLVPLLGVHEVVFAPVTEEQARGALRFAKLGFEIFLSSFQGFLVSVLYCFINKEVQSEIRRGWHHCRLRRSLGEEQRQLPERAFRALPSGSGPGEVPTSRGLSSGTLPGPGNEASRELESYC

[3] = Table 2C, Gaddum equation, single antagonist dose, HEK-293 hGIPR, read-out: nM (Kb)

| Compound | Visual appearance [1] | Avr lag time (h) [2] | Kb (human GIP receptor; [3]) [nM] | Avr lag time [2] [h] | Kb (human GIP receptor) [nM] |
| --- | --- | --- | --- | --- | --- |
| CC[C@H](C)[C@H](NC(=O)[C@H](CO)NC(=O)[C@H](Cc1ccc(O)cc1)NC(=O)[C@H](CC(=O)O)NC(=O)[C@H](CO)NC(=O)[C@@H](NC(=O)[C@H](Cc1ccccc1)NC(=O)[C@@H](NC(=O)CNC(=O)[C@@H](N)CCC(=O)O)[C@@H](C)O)[C@@H](C)CC)C(=O)N[C@@H](C)C(=O)N[C@@H](CCSC)C(=O)N[C@@H](CC(=O)O)C(=O)N[C@@H](CCCCN)C(=O)N[C@H](C(=O)N[C@@H](Cc1c[nH]cn1)C(=O)N[C@@H](CCC(N)=O)C(=O)N[C@@H](CCC(N)=O)C(=O)N[C@@H](CC(=O)O)C(=O)N[C@@H](Cc1ccccc1)C(=O)N[C@H](C(=O)N[C@@H](CCC(=O)O)C(=O)N[C@@H](Cc1c[nH]c2ccccc12)C(=O)N[C@@H](CC(C)C)C(=O)N[C@@H](CC(C)C)C(=O)N[C@@H](C)C(=O)N[C@@H](CCC(N)=O)C(=O)N[C@@H](CCCCN)C(=O)N1CCC[C@H]1C(=O)N[C@@H](CO)C(=O)N[C@@H](CO)C(=O)N[C@@H](CCCCNC(=O)CCCCCCCCCCCCCCC(=O)O)C(=O)N[C@@H](C)C(=O)N1CCC[C@H]1C(=O)N1CCC[C@H]1C(=O)N1CCC[C@H]1C(=O)N[C@@H](CO)C(=O)O)C(C)C)[C@@H](C)CC [AT743] (H-EGTFISDYSIAMDKIHQQDFVEWLLAQKPSSK(C16 diacid)APPPS-OH; N-terminus assumed) | Clear | fnd (Fnd = fibrils not detected within experiment time (96 hours) with agitation.) | 19 |  |  |
| CC[C@H](C)[C@H](NC(=O)[C@H](CO)NC(=O)[C@H](Cc1ccc(O)cc1)NC(=O)[C@H](CC(=O)O)NC(=O)[C@H](CO)NC(=O)[C@@H](NC(=O)[C@H](Cc1ccccc1)NC(=O)[C@@H](NC(=O)CNC(=O)[C@@H](N)CCC(=O)O)[C@@H](C)O)[C@@H](C)CC)C(=O)N[C@@H](C)C(=O)N[C@@H](CCSC)C(=O)N[C@@H](CC(=O)O)C(=O)N[C@@H](CCCCN)C(=O)N[C@H](C(=O)N[C@@H](CCCCNC(=O)CCCCCCCCCCCCCCC(=O)O)C(=O)N[C@@H](CCC(N)=O)C(=O)N[C@@H](CCC(N)=O)C(=O)N[C@@H](CC(=O)O)C(=O)N[C@@H](Cc1ccccc1)C(=O)N[C@H](C(=O)N[C@@H](CCC(=O)O)C(=O)N[C@@H](Cc1c[nH]c2ccccc12)C(=O)N[C@@H](CC(C)C)C(=O)N[C@@H](CC(C)C)C(=O)N[C@@H](C)C(=O)N[C@@H](CCC(=O)O)C(=O)N[C@@H](CCCCN)C(=O)N1CCC[C@H]1C(=O)N[C@@H](CO)C(=O)N[C@@H](CO)C(=O)NCC(=O)N[C@@H](C)C(=O)N1CCC[C@H]1C(=O)N1CCC[C@H]1C(=O)N1CCC[C@H]1C(=O)N[C@@H](CO)C(=O)O)C(C)C)[C@@H](C)CC [AT747] (H-EGTFISDYSIAMDKIK(C16 diacid)QQDFVEWLLAEKPSSGAPPPS-OH; N-terminus assumed) | Clear |  |  | <24 | 14 |
| CC[C@H](C)[C@H](NC(=O)[C@H](CO)NC(=O)[C@H](Cc1ccc(O)cc1)NC(=O)[C@H](CC(=O)O)NC(=O)[C@H](CO)NC(=O)[C@@H](NC(=O)[C@H](Cc1ccccc1)NC(=O)[C@@H](NC(=O)CNC(=O)[C@@H](N)CCC(=O)O)[C@@H](C)O)[C@@H](C)CC)C(=O)N[C@@H](C)C(=O)N[C@@H](CCSC)C(=O)N[C@@H](CC(=O)O)C(=O)N[C@@H](CCCCN)C(=O)N[C@H](C(=O)N[C@@H](CCCCNC(=O)CCCCCCCCCCCCCCC(=O)O)C(=O)N[C@@H](CCC(N)=O)C(=O)N[C@@H](CCC(N)=O)C(=O)N[C@@H](CC(=O)O)C(=O)N[C@@H](Cc1ccccc1)C(=O)N[C@H](C(=O)N[C@@H](CCC(=O)O)C(=O)N[C@@H](Cc1c[nH]c2ccccc12)C(=O)N[C@@H](CC(C)C)C(=O)N[C@@H](CC(C)C)C(=O)N[C@@H](C)C(=O)N[C@@H](CCC(N)=O)C(=O)N[C@@H](CCCCN)C(=O)O)C(C)C)[C@@H](C)CC [AT749] (H-EGTFISDYSIAMDKIK(C16 diacid)QQDFVEWLLAQK-OH; N-terminus assumed) | Clear |  | 2.2 | <24 |  |
